One assay deals with Escherichia coli SS. Nature of the assay: Antibacterial activity (agar dilution method), MIC. The assay is classed as cell-based. As to conditions: unit assumed. As for the experimental part:
(§1) Compounds of the invention were next tested for antibacterial potency, such activity being regarded as an undesirable side effect of motilin […] therapy. Assays were conducted using methodology well-known in the art (the agar dilution method).
For orientation: In agar dilution the substance is mixed into plates at graded concentrations.

The subject of assay [1] is Pseudomonas eruginosa K799/WT. Description: Antibacterial activity (agar dilution method), MIC. The conditions noted are these: unit assumed. The format is cell-based. How it is done: as §1
In assay [2] the test system is Streptococcus aureus A5177. Description: Antibacterial activity (agar dilution method), MIC. The assay is classed as cell-based. The conditions noted are these: unit assumed. How it is done: as §1
For assay [3], the system named is Streptococcus aureus ATCC 7538P. Nature of the assay: Antibacterial activity (agar dilution method), MIC. The format is cell-based. The conditions noted are these: unit assumed. How it is done: as §1
The subject of assay [4] is Streptococcus bovis ATCC 8043. Description: Antibacterial activity (agar dilution method), MIC. The format is cell-based. As to conditions: unit assumed. As for the experimental part:
as §1

The subject of assay [5] is Streptococcus pyogenes EES61. Nature of the assay: Antibacterial activity (agar dilution method), MIC. As to conditions: unit assumed. The format is cell-based. How it is done: as §1
Assay [6] deals with rabbit duodenal smooth muscle. Nature of the assay: In vitro prokinetic activity: contraction of smooth muscle strips isolated from rabbit small intestine (duodenum). The format is cell-based. As for the experimental part: The compounds of the present invention were tested in vitro for their ability to induce contraction of smooth muscle strips isolated from rabbit small intestine using the following procedure:
Rabbits were sacrificed and 15 cm of duodenum was rapidly removed and placed in ice-cold modified Ringers solution (120 mM sodium chloride, 25 mM sodium bicarbonate, 4.7 mM potassium chloride, 1.25 mM calcium chloride, 1.20 mM magnesium sulfate and 5.6 mM glucose). The longitudinal muscle layer was separated from the circular muscle by blunt dissection and cut into strips of 10×20 mm. Double-folded strips were vertically suspended between two hooks in 10 mL tissue baths with a mechanical preload of 1 g. The upper hook was connected to an […] force transducer, and its displacement was recorded on a Grass polygraph. The tissue baths contained modified Ringers solution at 37° C. and were continuously gassed with 95% oxygen/5% carbon dioxide in order to maintain the pH at 7.5.
After a stabilization period of at least 60 minutes, a contractility dose-response series was performed by adding increasing final concentrations of methacholine (10^-7 M, 10^-6 M and 10^-5 M) in volumes of 100 μL. The bath solutions were replaced at least three times between doses.
After the methacholine dose-response series was completed, a test compound dose response curve was initiated by the same procedure used for the methacholine dose-response series, with at least five concentrations of test compound within the range of 10^-10 M to 10^-4 M. The tissues were washed repeatedly between doses, and the studies were completed by recording the contractile response to 10^-5 M methacholine to ascertain integrity of the muscle preparation. Contractile responses were expressed as percent of maximal methacholine induced contraction. The concentration of test compound which produces half of the maximal contraction (ED50 value) and the negative logarithm of the ED50 value (pED50) were estimated from the dose-response curves. The pED50 values were compared to motilin, (pED50 : 8.10) a known gastrointestinal prokinetic agent.

A further assay concerns the target T1, motilin receptors (Oryctolagus cuniculus, UniProt G1T803).
T1 construct: Motilin receptors were isolated from rabbit antral smooth muscle tissue; from tissue; host or cells: rabbit antral smooth muscle tissue
Nature of the assay: Motilin receptor binding activity ([^125 I]-motilin displacement, rabbit antral smooth muscle). The text has this:
This ability of the compounds to bind strongly to motilin receptors and the effective absence of elicitation of contractile activity by estimated therapeutic concentration of these compounds in rabbit duodenal smooth muscle together constitute motilin antagonist activity of the compounds.

Molecules are shown by their SMILES. ≈ marks a conversion by molar mass, not a printed value. Like-named read-outs stand apart in the source and are kept apart here.

T1 sequence (G1T803 1-400): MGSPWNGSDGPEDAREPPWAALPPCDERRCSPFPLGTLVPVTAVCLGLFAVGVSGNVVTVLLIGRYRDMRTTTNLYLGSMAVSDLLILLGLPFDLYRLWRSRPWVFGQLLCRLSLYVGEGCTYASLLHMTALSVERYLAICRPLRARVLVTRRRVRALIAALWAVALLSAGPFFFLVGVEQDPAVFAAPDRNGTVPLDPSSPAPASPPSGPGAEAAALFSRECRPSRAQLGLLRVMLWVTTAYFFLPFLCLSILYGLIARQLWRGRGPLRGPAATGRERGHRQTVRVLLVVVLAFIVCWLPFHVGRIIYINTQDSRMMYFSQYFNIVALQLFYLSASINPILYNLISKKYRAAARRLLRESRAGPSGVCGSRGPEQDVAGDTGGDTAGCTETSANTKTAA

By MIC is commonly meant the lowest concentration that inhibits growth of the organism. A higher MIC goes with weaker potency. Consider `CC[C@H]1OC(=O)[C@H](C)[C@@H](O[C@H]2C[C@@](C)(OC)[C@@H](O)[C@H](C)O2)[C@H](C)[C@@H](O[C@@H]2O[C@H](C)C[C@H](N(C)C)[C@H]2O)[C@](C)(O)C[C@@H](C)C(=O)[C@H](C)[C@@H](O)[C@]1(C)O` [Erythromycin], for which the MIC in the assay on Escherichia coli SS turned out to be 0.39 µg/mL (≈ 0.531 µM); in assay [1], 0.78 µg/mL (≈ 1.06 µM); in assay [2], 6.2 µg/mL (≈ 8.45 µM); in assay [3], 0.2 µg/mL (≈ 0.273 µM); in assay [4], 0.05 µg/mL (≈ 0.0681 µM); in assay [5], 0.05 µg/mL (≈ 0.0681 µM).

As to `CC[C@H]1OC(=O)[C@H](C)[C@@H](O[C@H]2C[C@@](C)(OC)C[C@H](C)O2)[C@H](C)[C@@H](O[C@@H]2O[C@H](C)C[C@H](N(C)CC)[C@H]2O)[C@@]2(C)CC(C)=C(O2)C(C(C)F)[C@H]1C` (stereo partly shown) [Example 1, Compound of Formula (I); R=H; R^1 =methyl; R^2 =ethyl; R^3 =H; X=F], the EC50 in assay [6] (Oryctolagus cuniculus, rabbit duodenum strips, 37° C., percent of maximal methacholine induced contraction, read-out: pED50 (negative logarithm of the concentration producing half of the maximal contraction) (converted)) was greater than 100000 nM. The “agonism for induction of contractile activity (in words)” value in assay [6] (rabbit duodenal smooth muscle) was “very weak agonist”. The “potency relative to motilin, induction of contractile activity” value in assay [6] (rabbit duodenal smooth muscle, pED50 compared to motilin) is on record as “more than four orders of magnitude less potent than motilin”. Also, the MIC was greater than 100 µg/mL against Escherichia coli SS; greater than 100 µg/mL in assay [1]; 50 µg/mL in assay [2]; 50 µg/mL in assay [3]; 25 µg/mL in assay [4]; 25 µg/mL in assay [5]. The “motilin receptor binding (in words)” value on motilin receptors (rabbit antral smooth muscle, [^125 I]-motilin) is given as “binds strongly to motilin receptors”. Besides, on motilin receptors (rabbit antral smooth muscle, [^125 I]-motilin, read-out: pKd, motilin binding (negative logarithm of the concentration displacing 50% of bound [^125 I]-motilin) (converted)), the Kd was 11.5 nM.

On to `CC[C@H](C)[C@H](NC(=O)[C@@H]1CCCN1C(=O)[C@@H](NC(=O)[C@@H](N)Cc1ccccc1)C(C)C)C(=O)N[C@@H](Cc1ccccc1)C(=O)N[C@H](C(=O)N[C@@H](Cc1ccc(O)cc1)C(=O)NCC(=O)N[C@@H](CCC(=O)O)C(=O)N[C@@H](CC(C)C)C(=O)N[C@@H](CCC(N)=O)C(=O)N[C@@H](CCCNC(=N)N)C(=O)N[C@@H](CCSC)C(=O)N[C@@H](CCC(N)=O)C(=O)N[C@@H](CCC(=O)O)C(=O)N[C@@H](CCCCN)C(=O)N[C@@H](CCC(=O)O)C(=O)N[C@@H](CCCNC(=N)N)C(=O)N[C@@H](CC(N)=O)C(=O)N[C@@H](CCCCN)C(=O)NCC(=O)N[C@@H](CCC(N)=O)C(=O)O)[C@@H](C)O` [motilin, reference compound], for which, in assay [6] (rabbit duodenum strips, 37° C., percent of maximal methacholine induced contraction), the “pED50 (negative logarithm of the concentration producing half of the maximal contraction)” value stood at 8.10. Further, on motilin receptors, the Kd was 0.794 nM.

For the origin of these results see patent publication US5712253A, “Macrocyclic 13-membered ring derivatives of erythromycins A and B” (Abbott Laboratories, priority 1996, dated 1998).
